Bounds are passed on as bounds.

The text below walks through data of US20140005163A1 (NOVARTIS AG, priority 2010, published 2014).

Common to all, as to format: cell-based
The subject of assay [1] is PKB Ser473 phosphorylation in Rat1-myr-HA-p110 delta cells. Briefly: Reverse protein array assay, PKB Ser473 phosphorylation in Rat1-myr-p110 delta cells. The following applies: read-out: p-PKB IC50. In outline: (§1)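 Compound exposure lasted 30 min in Rat1 cells bearing membrane-targeted HA-p110 isoforms, using 8 serial concentrations. Arrayed lysates, each spotted at four dilutions, gave relative fluorescence signals for phospho-Ser473 PKB.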

The subject of assay [2] is S6 Ribosomal Protein phosphorylation Ser235/236 in TSC1 null mouse embryo fibroblast (MEF) cells. In words: Reverse protein array assay, S6 Ribosomal Protein phosphorylation Ser235/236 in TSC1 null MEF cells. The following applies: 1 h, pS6 ribosomal protein Ser235/236, 60 minutes incubation, read-out: p-S6 IC50. In a few lines: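 TSC1−/− MEFs, seeded and held ≥20 h at 37 °C/5% CO2, were exposed to 8-step serial compound dilutions (0.02% DMSO final; DMSO vehicle control) for 60 min at 37 °C. Cells were then lysed on ice for 10 min and lysates spotted onto reverse protein array chips.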

Assay [3] relates to PKB Ser473 phosphorylation in Rat1-myr-HA-p110 beta cells. Briefly: Reverse protein array assay, PKB Ser473 phosphorylation in Rat1-myr-p110 beta cells. Conditions: 0.5 h, pAkt Ser473, 30 minutes incubation, read-out: p-PKB IC50. In outline: as §1
Assay [4] concerns PKB Ser473 phosphorylation in Rat1-myr-HA-p110 alpha cells. In words: Reverse protein array assay, PKB Ser473 phosphorylation in Rat1-myr-p110 alpha cells. Conditions: 0.5 h, pAkt Ser473, 30 minutes compound incubation, read-out: p-PKB IC50. In a few lines:
as §1

On to `CCNc1cc(-c2ccc3ncc4c(c3c2)n(-c2cn(C)nc2C)c(=O)n4C)cnc1CO` [Example 155.1, 1-(1,3-Dimethyl-1H-pyrazol-4-yl)-8-(5-ethylamino-6-hydroxymethyl-pyridin-3-yl)-3-methyl-1,3-dihydro-imidazo[4,5-c]quinolin-2-one], for which the concentration for half-maximal inhibition (IC50) in assay [1] amounted to 19 nM; in assay [2], 2 nM; in assay [3], 22 nM; in assay [4], 13 nM.

On to `Cc1nn(C(C)C)cc1-n1c(=O)n(C)c2cnc3ccc(-c4cncc(N)c4)cc3c21` [Example 45.3, 8-(5-Amino-pyridin-3-yl)-1-(1-isopropyl-3-methyl-1H-pyrazol-4-yl)-3-methyl-1,3-dihydro-imidazo[4,5-c]quinolin-2-one], for which the IC50 was 213 nM in assay [1], 46 nM in assay [2], 36 nM in assay [3] and 14 nM in assay [4].

Turning to `Cc1nn(CC(=O)N2CCC2)cc1-n1c(=O)n(C)c2cnc3ccc(-c4cnc(N5CCCC5)nc4)cc3c21` [Example 247.2, 1-[1-(2-Azetidin-1-yl-2-oxo-ethyl)-3-methyl-1H-pyrazol-4-yl]-3-methyl-8-(2-pyrrolidin-1-yl-pyrimidin-5-yl)-1,3-dihydro-imidazo[4,5-c]quinolin-2-one], the IC50 in assay [1] was determined as 288 nM; in assay [2] it was 9 nM; in assay [3] it was 87 nM; in assay [4] it was 45 nM.

Take `COCCOc1cncc(-c2ccc3ncc4c(c3c2)n(-c2cn(C)nc2Cl)c(=O)n4C)c1` [Example 59.2, 1-(3-Chloro-1-methyl-1H-pyrazol-4-yl)-8-[5-(2-methoxy-ethoxy)-pyridin-3-yl]-3-methyl-1,3-dihydro-imidazo[4,5-c]quinolin-2-one]: the IC50 in assay [1] is 69 nM; in assay [2] it was 1 nM; in assay [3], 61 nM; in assay [4], 12 nM.

With `Cc1nn(C)cc1-n1c(=O)n(C)c2cnc3ccc(-c4ccnc(OC(C)C)c4)cc3c21` [Example 92, 1-(1,3-Dimethyl-1H-pyrazol-4-yl)-8-(2-isopropoxy-pyridin-4-yl)-3-methyl-1,3-dihydro-imidazo[4,5-c]quinolin-2-one], the IC50 in assay [2] is 75 nM; in assay [3], 715 nM; in assay [4] it was 244 nM.

For `Cc1nn(C(C)C)cc1-n1c(=O)n(C)c2cnc3ccc(-c4cnc(N)c(F)c4)cc3c21` [Example 142.3, 8-(6-Amino-5-fluoro-pyridin-3-yl)-1-(1-isopropyl-3-methyl-1H-pyrazol-4-yl)-3-methyl-1,3-dihydro-imidazo[4,5-c]quinolin-2-one], the IC50 was 23 nM in assay [1], 1 nM in assay [2], 19 nM in assay [3] and 10 nM in assay [4].

Take `Cc1nn(C)cc1-n1c(=O)n(C)c2cnc3ccc(-c4cncc(N5CCOCC5)c4)cc3c21` [Example 175.1, 1-(1,3-Dimethyl-1H-pyrazol-4-yl)-3-methyl-8-(5-morpholin-4-yl-pyridin-3-yl)-1,3-dihydro-imidazo[4,5-c]quinolin-2-one]: the IC50 came out at 90 nM in assay [1], 1 nM in assay [2], 37 nM in assay [3] and 17 nM in assay [4].

For `Cc1nn(C)c(C)c1-n1c(=O)n(C)c2cnc3ccc(-c4cnc(N)c(Cl)c4)cc3c21` [Example 148.1, 8-(6-Amino-5-chloro-pyridin-3-yl)-3-methyl-1-(1,3,5-trimethyl-1H-pyrazol-4-yl)-1,3-dihydro-imidazo[4,5-c]quinolin-2-one], the IC50 in assay [1] turned out to be 90 nM; in assay [2], 22 nM; in assay [3], 139 nM; in assay [4] it was 63 nM.

As for `Cc1nn(C)cc1-n1c(=O)n(C)c2cnc3ccc(-c4cncc(NC5CCC5)c4)cc3c21` [Example 172, 8-(5-Cyclobutylamino-pyridin-3-yl)-1-(1,3-dimethyl-1H-pyrazol-4-yl)-3-methyl-1,3-dihydro-imidazo[4,5-c]quinolin-2-one], the IC50 in assay [1] worked out at 15 nM; in assay [2], 1 nM; in assay [3] it was 13 nM; in assay [4], 9 nM.

`CCN(C)c1cc(-c2ccc3ncc4c(c3c2)n(-c2cn(C)nc2C)c(=O)n4C)cnc1C` [Example 165, 1-(1,3-Dimethyl-1H-pyrazol-4-yl)-8-[5-(ethyl-methyl-amino)-6-methyl-pyridin-3-yl]-3-methyl-1,3-dihydro-imidazo[4,5-c]quinolin-2-one]: the IC50 was 8 nM in assay [1], 1 nM in assay [2], 11 nM in assay [3] and 6 nM in assay [4].

Take `CO[C@@H]1CCN(c2ccc(-c3ccc4ncc5c(c4c3)n(-c3cn(C)nc3C)c(=O)n5C)cn2)C1` [Example 213.1, 1-(1,3-Dimethyl-1H-pyrazol-4-yl)-8-[6-((R)-3-methoxy-pyrrolidin-1-yl)-pyridin-3-yl]-3-methyl-1,3-dihydro-imidazo[4,5-c]quinolin-2-one]: the IC50 amounted to 631 nM in assay [1], 49.4 nM in assay [2], 342 nM in assay [3] and 125 nM in assay [4].

For the molecule `COc1ccc(-c2ccc3ncc4c(c3c2)n(-c2cc(C)nn2C)c(=O)n4C)cc1OC` [Example 1.4, 8-(3,4-Dimethoxy-phenyl)-1-(2,5-dimethyl-2H-pyrazol-3-yl)-3-methyl-1,3-dihydro-imidazo[4,5-c]quinolin-2-one], the concentration for half-maximal inhibition (IC50) is 131 nM in assay [1], 157 nM in assay [3] and 22 nM in assay [4].

Consider `CCOc1cc(-c2ccc3ncc4c(c3c2)n(-c2cn(C(C)C)nc2C)c(=O)n4C)cnc1COC` [Example 197.2, 8-(5-Ethoxy-6-methoxymethyl-pyridin-3-yl)-1-(1-isopropyl-3-methyl-1H-pyrazol-4-yl)-3-methyl-1,3-dihydro-imidazo[4,5-c]quinolin-2-one], for which the IC50 in assay [1] is 336 nM; in assay [2], 7 nM; in assay [3], 77 nM; in assay [4], 77 nM.

Consider `Cc1nn(C(C)C)cc1-n1c(=O)n(C)c2cnc3ccc(-c4cnc(N)c(CO)c4)cc3c21` [Example 169.1, 8-(6-Amino-5-hydroxymethyl-pyridin-3-yl)-1-(1-isopropyl-3-methyl-1H-pyrazol-4-yl)-3-methyl-1,3-dihydro-imidazo[4,5-c]quinolin-2-one], for which the half-inhibitory concentration (IC50) in assay [1] was 70 nM; in assay [2] it was 5.63 nM; in assay [3], 37 nM; in assay [4], 27 nM.

Consider `Cn1cc(-n2c(=O)n(C)c3cnc4ccc(-c5ccc(CO)nc5)cc4c32)c(Cl)n1` [Example 16.5, 1-(3-chloro-1-methyl-1H-pyrazol-4-yl)-8-(6-hydroxymethyl-pyridin-3-yl)-3-methyl-1,3-dihydro-imidazo[4,5-c]quinolin-2-one], for which the half-maximal inhibitory concentration (IC50) in assay [1] was determined as 28 nM; in assay [2] it was 13 nM; in assay [3] it was 10 nM; in assay [4], 8 nM.

In the case of `CCNc1cc(-c2ccc3ncc4c(c3c2)n(-c2cn(CC)nc2C)c(=O)n4C)cnc1CO` [Example 155.2, 8-(5-Ethylamino-6-hydroxymethyl-pyridin-3-yl)-1-(1-ethyl-3-methyl-1H-pyrazol-4-yl)-3-methyl-1,3-dihydro-imidazo[4,5-c]quinolin-2-one], the IC50 was found to be 13 nM in assay [1], 1 nM in assay [2], 7 nM in assay [3] and 5 nM in assay [4].

Take `Cc1nn(C)cc1-n1c(=O)n(C)c2cnc3ccc(-c4cnc(N)c(Cl)c4)cc3c21` [Example 148.2, 8-(6-Amino-5-chloro-pyridin-3-yl)-1-(1,3-dimethyl-1H-pyrazol-4-yl)-3-methyl-1,3-dihydro-imidazo[4,5-c]quinolin-2-one]: the IC50 in assay [1] is 12 nM; in assay [2] it was 1 nM; in assay [3], 6 nM; in assay [4] it was less than 5 nM.

Take `Cc1nn(C)cc1-n1c(=O)n(C)c2cnc3ccc(-c4cncc(N(C)C(C)C)c4)cc3c21` [Example 173, 1-(1,3-Dimethyl-1H-pyrazol-4-yl)-8-[5-(isopropyl-methyl-amino)-pyridin-3-yl]-3-methyl-1,3-dihydro-imidazo[4,5-c]quinolin-2-one]: the 50% inhibitory concentration (IC50) in assay [1] is 50 nM; in assay [2] it was 2 nM; in assay [3], 29 nM; in assay [4], 16 nM.

`Cn1nccc1-n1c(=O)n(C)c2cnc3ccc(-c4ccc(NCCO)nc4)cc3c21` [Example 21.1, 8-[6-(2-Hydroxy-ethylamino)-pyridin-3-yl]-3-methyl-1-(2-methyl-2H-pyrazol-3-yl)-1,3-dihydro-imidazo[4,5-c]quinolin-2-one]: the concentration for half-maximal inhibition (IC50) is 906 nM in assay [1], 173 nM in assay [3] and 191 nM in assay [4].

Consider `Cc1nn(C)c(C)c1-n1c(=O)n(C)c2cnc3ccc(-c4ccc(CO)nc4)cc3c21` [Example 16.4, 8-(6-Hydroxymethyl-pyridin-3-yl)-3-methyl-1-(1,3,5-trimethyl-1H-pyrazol-4-yl)-1,3-dihydro-imidazo[4,5-c]quinolin-2-one], for which the IC50 was found to be 1510 nM in assay [1] and 234 nM in assay [4].

On to `Cc1nn(C)c(C)c1-n1c(=O)n(C)c2cnc3ccc(-c4cnc(N)c(CO)c4)cc3c21` [Example 169.2, 8-(6-Amino-5-hydroxymethyl-pyridin-3-yl)-3-methyl-1-(1,3,5-trimethyl-1H-pyrazol-4-yl)-1,3-dihydro-imidazo[4,5-c]quinolin-2-one], for which the IC50 is 869 nM in assay [1], 586 nM in assay [3] and 460 nM in assay [4].

By IC50 is commonly meant the concentration that inhibits the measured activity by half.
